Patent US4603217A, “Ester substituted alkyl-2-(2,6-dichloroanilino)phenyl acetates” (priority 1983, dated 1986)
Read-outs that look alike come from different tables or passages of the source.

Experiments:
[1] = in vivo; settings: rat, po
Method: Gastrointestinal ulcer formation action, which is a principal side effect of an acid anti-inflammatory drug, was investigated according to the method of Okabe et al [cf. […] The compounds of the present invention, IM, DF and acemethacin were suspended in 5% Tween-80 solution and administered orally 1 ml/100 g body weight to the rats, respectively. At 6 hrs after the administration, the state of glandstomach was observed by means of a dissecting microscope whether the ulcer having a diameter more than 1 mm was generated or not.

[2] = Rate of hydrolysis in rat plasma; format: in vitro ADME; settings: in 1 ml of plasma rat (37° C., incubation for 1 hr)
Method: **in 1 ml of plasma rat (37° C., incubation for 1 hr)

[3] = potentiating effect on thiopental-induced sleep in mice; format: in vivo, male ddY mice; settings: mouse, in vivo, po
Method: (§1) Effect on central nervous system, which is another side effect of IM, was investigated according to the potentiating effect on thiopental-induced sleep in mice as follows: Male ddY mice weighing 20 to 24 g were subjected to fasting for 15 hrs. […] At 30 mins after the administration, thiopental sodium was injected intravenously to each of the mice in an amount of 35 mg/l kg body weight, and then, the sleeping time was observed. When the sleeping time of the mice to which the Test Compound was administered was longer than 2 times that of the control to which only Tween-80 was administered, the given Test Compound was judged to be effective on thiopental-induced sleep potentiating effect.

[4] = system: thiopental-induced sleep; test: as above; format: in vivo, male ddY mice
Method: as §1

[5] = system: carrageenan edema; test: inhibition test of carrageenan edema employing a foot-pad edema method; format: in vivo, male Wister rats; settings: Rattus norvegicus, read-out: ED50 for inhibition for carrageenan edema
From the text: Anti-inflammatory action was investigated according to the method of Winter et al [cf. Pro. Soc. Exp. Biol. Med., 111, 544 (1962)] by the inhibition test of carrageenan edema employing a foot-pad edema method using carrageenan as an irritating agent and male Wister rats weighing 130 to 170 g.

[6] = in vivo; settings: mouse, po
[7] = system: ultraviolet erythema; test: inhibition action for ultraviolet erythema; format: in vivo, male Hartley guinea pigs; design: 2 hs after the irradiation, Average ± standard error / 3 hs after the irradiation, Average ± standard error / 5 hs after the irradiation, Average ± standard error: scale not given here; 2 hs after the irradiation, Rate for inhibition / 3 hs after the irradiation, Rate for inhibition / 5 hs after the irradiation, Rate for inhibition: unit not given here; settings: for 2 hs after the irradiation, Average ± standard error / 2 hs after the irradiation, Rate for inhibition: 2 hs after irradiation; for 3 hs after the irradiation, Average ± standard error / 3 hs after the irradiation, Rate for inhibition: 3 hs after irradiation; for 5 hs after the irradiation, Average ± standard error / 5 hs after the irradiation, Rate for inhibition: 5 hs after irradiation
Method: With respect to Compounds 1 to 3, 15 and 21 which are especially useful as an anti-inflammatory drug, IM and DF, inhibition action for ultraviolet erythema was investigated according to the method of Adames et al [cf. Nature, London, 181, 773 (1958)] using guinea pigs as follows: Male Hartley guinea pigs weighing 250 to 350 g were shaved at their sides the day before and two hrs before the ultraviolet irradiation. To the guinea pigs were administered orally Compounds 1 to 3, 15 and 21, IM and DF in amounts as described in Table 2, respectively. To the control group was administered orally only Tween-80. At 1 hr after the time of administration, the guinea pigs were irradiated at their shaved sides by ultraviolet beam for 40 seconds.
The reaction of the ultraviolet erythema was evaluated at 2 hrs, 3 hrs and 5 hrs after irradiation according to the method of Winder et al [cf. Arch. Int. Pharmacodyn., 116, 261 (1958)]. […] Compounds 1 and 2 show a duration of the pharmacological effect over 5 hrs, contrary to that IM has a duration of 2 hrs.

[8] = male Wister rats, foot-pad edema

Row | Compound | TD50 at 6 h [1] | metabolised at 1 h [2] | ED50 [3] | ED50 [5, 8] | LD50 [6] | 2 hs after the irradiation, Average ± standard error ([7]; 3 mg/kg orally, guinea pigs) | 2 hs after the irradiation, Rate for inhibition ([7]; 3 mg/kg orally, guinea pigs) | 3 hs after the irradiation, Average ± standard error ([7]; 3 mg/kg orally, guinea pigs) | 3 hs after the irradiation, Rate for inhibition ([7]; 3 mg/kg orally, guinea pigs) | 5 hs after the irradiation, Average ± standard error ([7]; 3 mg/kg orally, guinea pigs) | 5 hs after the irradiation, Rate for inhibition ([7]; 3 mg/kg orally, guinea pigs) | 2 hs after the irradiation, Average ± standard error ([7]; 10 mg/kg orally, guinea pigs) | 2 hs after the irradiation, Rate for inhibition ([7]; 10 mg/kg orally, guinea pigs) | 3 hs after the irradiation, Average ± standard error ([7]; 10 mg/kg orally, guinea pigs) | 3 hs after the irradiation, Rate for inhibition ([7]; 10 mg/kg orally, guinea pigs) | 5 hs after the irradiation, Average ± standard error ([7]; 10 mg/kg orally, guinea pigs) | 5 hs after the irradiation, Rate for inhibition ([7]; 10 mg/kg orally, guinea pigs) | ED50 [5] | also measured
1 | C/C=C/C(=O)OC(C)OC(=O)Cc1c(C)n(C(=O)c2ccc(Cl)cc2)c2ccc(OC)cc12 (stereo not drawn) [Compound 10, 1-(Crotonoyloxy)ethyl[1-(p-chlorobenzoyl)-5-methoxy-2-methyl-3-indolyl]acetate] | 20 mg/kg | 88.2% | 261 mg/kg | 7 mg/kg | 65 mg/kg |  |  |  |  |  |  |  |  |  |  |  |  |  | potentiating effect on thiopental-induced sleep relative to IM ([4]; mouse, in vivo): 1/2.5
2 | CC=CC=CC(=O)OC(C)OC(=O)Cc1ccccc1Nc1c(Cl)cccc1Cl (stereo not drawn) [Compound 21, 1-(2,4-Hexadienoyloxy)ethyl-2-(2,6-dichloroanilino)phenylacetate] | > 80 mg/kg | 78.2% |  | 30 mg/kg | 790 mg/kg | 1.33 ± 0.211 | 50.2 | 3.00 ± 0 | 0 | 3.00 ± 0 | 0 | 1.50 ± 0.224 | 43.8 | 2.50 ± 0.224 | 11.7 | 2.50 ± 0.224 | 11.7 |  | inhibition effect for ultraviolet erythema compared with IM and DF ([7]; relative to IM and DF): equal inhibition effect for ultraviolet erythema to that of IM and DF
3 | O=C(O)Cc1ccccc1Nc1c(Cl)cccc1Cl [DF, diclofenac, reference compound] |  |  |  |  |  | 1.17 ± 0.307 | 56.2 | 2.17 ± 0.401 | 23.3 | 2.67 ± 0.211 | 5.7 | 1.17 ± 0.307 | 56.2 | 2.50 ± 0.342 | 11.7 | 2.83 ± 0.167 | 0 | 15 mg/kg | potentiating effect on thiopental-induced sleep (in words) ([4]; mice, oral): did not show the potentiating effect
4 | COc1ccc2c(c1)c(CC(=O)O)c(C)n2C(=O)c1ccc(Cl)cc1 [IM, indomethacin, reference compound] |  |  | 205 mg/kg |  | 31.5 mg/kg | 2.17 ± 0.307 | 18.7 | 2.5 ± 0.224 | 11.7 | 2.83 ± 0.167 | 0 | 1.33 ± 0.217 | 50.2 | 2.83 ± 0.167 | 0 | 3.0 ± 0 | 0 | 5.5 mg/kg | TD50 at 6 h ([1]; in vivo): 8 mg/kg; duration of the pharmacological effect ([7]; ultraviolet erythema, guinea pigs, oral): 2 hrs
